Entries after “also recorded” stand apart in the source; their conditions may differ. Where two headings read alike, the source gives them in different places.
Experiments:
[1] = tested on: SH-SY5Y cells; assay: Western blot for dimethylated H3K4 in SH-SY5Y cells; type: cell-based
Description: B-actin was used as a loading control.

[2] = tested on: R6/2 mice; assay: Two-choice swim test in R6/2 mouse; type: in vivo; conditions: transgenic R6/2 mice
Description: Eighty male and female R6/2 mice and 20 male and female wild-type littermate control mice (F1 generation) will be bred by Cerebricon at FELASA compliant National Animal Facility Center Kuopio by mating (F0 generation) WT males (C57BL6CBA F1 hybrid, JAX) with ovarian transferred (01) TG females (JAX). Breeder animals receive igloos instead of play tunnels, nylabone and cotton nestlets and use Purina diet 5008. Upon weaning, pups receive Purina diet 5001.
Sertraline will be made fresh daily by diluting to 1% TWEEN® 80 in ddH2°.
Two-Choice Swim Test: The two-choice swim test is performed at age week 9. The swim tank (dimensions: 70 cm×30 cm×30 cm) is filled with water (26±1° C.) no higher than 1 cm from the top of a hidden escape platform. The hidden cylindrical platform (diameter, 6.0 cm, height,˜9 cm) is placed either at right or left end of the tank. During acquisition of the task, each mouse is given six training trials per day to swim towards or away from the right end (counterbalanced across subjects) to escape onto the platform. […] A choice is recorded when a mouse moves towards one end and swims beyond 20 cm from the center. If the mouse fails to make a choice within about 15 minutes a “no choice” is recorded. […] In all trials, choice, latency and “no choice” are recorded.

[3] = Body weight loss in chronically treated R6/2 mouse; type: in vivo; conditions: R6/2 mice, 5 mg/kg or 10 mg/kg IP per day, chronic
Description: More easily measured is body weight loss.
In the R6/2 mouse study described above the weight of the animals were monitored to determine if the LSD1 or LSD1/MAO-B dual inhibitor cause weight loss in chronically treated animals. […] .

[4] = tested on: mouse haloperidol model; assay: Mouse haloperidol model of catalepsy; type: in vivo; conditions: control caffeine
Description: See, e.g., East et al. (2010), Bioorg. Med Chem. Lett., August 15; 20(16):4901-5, Epub 2010 Jun. 25.

[5] = tested on: R6/2 mice; assay: Longevity / survival study in R6/2 mouse; conditions: for survival versus vehicle and sertraline treated animals: 10 mg/kg
Description: The solutions are made and stored according to instructions provided by the sponsor (storage conditions and expiration day of solution).
Body weight is measured starting at age of four weeks and two times per week on the same day (i.e., Monday and Thursday) until end of the study. For convenience this is done just prior to animals receiving doses for those days. Animals are monitored twice-a-day by laboratory personnel (8 am and 4 pm) for “survival.” It is most optimal to measure “true survival” that is when the mouse has no detectable heartbeat. Since IACUC restrictions prevent this then using a definable and quantifiable endpoint for “survival” need to be used (see section 2.7 humane end-points). […] For instance, body temperature changes can drop just before death but many R6/2 mice show spontaneous death without preceding body temperature changes. More easily measured is body weight loss. […] Again mice that die spontaneously may not show such acute body weight changes. For these alternative measures combining these “survival” data (body weight or temperature decrease) with “survival” of spontaneous death mice (age found dead in a cage) is suitable.

[6] = biological target: T1, Human recombinant monoamine oxidase MAO-A (Homo sapiens, UniProt P21397); assay: MAO-A inhibition assay (kynuramine fluorescence); type: biochemical
T1 construct: purchased Sigma Aldrich
T1 sequence (P21397 1-527): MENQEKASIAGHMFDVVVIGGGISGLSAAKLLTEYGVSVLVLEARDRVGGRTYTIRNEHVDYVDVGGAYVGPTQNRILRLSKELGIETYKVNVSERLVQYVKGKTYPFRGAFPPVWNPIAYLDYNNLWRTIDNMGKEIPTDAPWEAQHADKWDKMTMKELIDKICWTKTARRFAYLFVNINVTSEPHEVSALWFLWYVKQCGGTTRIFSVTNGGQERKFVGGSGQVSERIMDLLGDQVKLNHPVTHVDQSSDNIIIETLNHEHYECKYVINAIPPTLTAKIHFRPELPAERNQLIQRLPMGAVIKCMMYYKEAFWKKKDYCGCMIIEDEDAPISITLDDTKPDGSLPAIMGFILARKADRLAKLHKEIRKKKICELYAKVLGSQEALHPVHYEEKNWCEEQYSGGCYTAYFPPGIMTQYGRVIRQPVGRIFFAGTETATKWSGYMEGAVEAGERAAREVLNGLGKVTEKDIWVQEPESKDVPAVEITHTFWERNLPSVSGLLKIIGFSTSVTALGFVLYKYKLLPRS
Description: Human recombinant monoamine oxidase proteins MAO-A and MAO-B were purchased from Sigma Aldrich. MAOs catalyze the oxidative deamination of primary, secondary and tertiary amines. In order to monitor MAO enzymatic activities and/or their inhibition rate by inhibitor(s) of interest, a fluorescent-based (inhibitor)-screening assay was set up. 3-(2-Aminophenyl)-3-oxopropanamine (kynuramine dihydrobromide, Sigma Aldrich), a non fluorescent compound was chosen as a substrate. Kynuramine is a non-specific substrate for both MAOs activities. While undergoing oxidative deamination by MAO activities, kynuramine is converted into 4-hydroxyquinoline (4-HQ), a resulting fluorescent product.
The monoamine oxidase activity was estimated by measuring the conversion of kynuramine into 4-hydroxyquinoline. Assays were conducted in 96-well black plates with clear bottom (Corning) in a final volume of 100 μL. The assay buffer was 100 mM HEPES, pH 7.5. Each experiment was performed in triplicate within the same experiment. […] The conversion of kynuramine to 4-hydroxyquinoline, was monitored by fluorescence (excitation at 320 nm, emission at 360 nm) using a microplate reader (Infinite 200, Tecan). Arbitrary units were used to measure levels of fluorescence produced in the absence and/or in the presence of inhibitor. […] The Ki (TC50) of each inhibitor was determined at Vmax/2.

[7] = tested on: Drosophila melanogaster expressing HD-Q120; assay: Eye (rhabdomere) degeneration in Huntington disease fly line B-8533; type: in vivo; conditions: 1 μM and 5 μM
Description: The eye of the fruit fly, Drosophila melanogaster, provides an ideal model system for studying neuronal survival. Each eye consists of approximately 800 units called ommatidia arranged in a regular pattern and the photoreceptors that compose each ommatidium exist in an ordered trapezoidal array. The presence and organization of these cells can be readily assessed using a technique called optical neutralization of the cornea (Franceschini and Kirschfeld, 1971).
This technique is being used in a screen for compounds that can rescue the neurodegenerative phenotype of a Drosophila model of Huntingtons disease (HD), fly line B-8533 (Jackson et al., 1998). This line contains a P-element construct inserted on the second chromosome, P{w+ gmr.HD-Q120)}. The construct contains a w+ visible eye-color marker, which enables confirmation of the presence of the insertion. […]
The now three- to ten-day-old flies are added to the vials (six to ten females and three males in each), incubated at 25° for seven to ten days. […] F1 eclosion-start date is noted and males and females are counted. […] Ommatidia are scored for number of visible rhabdomeres (0 to 7). […] Significance can be determined by the Mann-Whitney U-test or one-tailed student's T-test. […]

NC(=O)CNC1CC1c1ccc(OCc2ccccc2)cc1 (stereo not shown) [Compound Dual-1]
levels of dimethylated H3K4 (western blot) ([1]; 100 μM, one, two and three days): increases H3K4 methylation in cells in a time dependent manner; also recorded: increases levels of dimethylated H3K4 in cells in a time dependent manner | potency at increasing global dimethylated H3K4 levels as compared to tranylcypromine ([1]; Dual-1 100 μM vs parnate 250 μM): ten-fold or more potent | other parameters of two-choice swim test ([2]; 5 mg/kg ip): clear trend (NS) | performance in two-choice swim test (latency to find the platform) ([2]; 5 mg/kg ip once-a-day, age week 9, 5 mg/kg): significantly improved the performance; also recorded: improved response in the two-choice swim test | body weight loss compared to transgenic animals treated with vehicle or sertraline [3]: caused no significant weight loss; also recorded: did not have substantially different weight losses | rescue of toxin induced deficit (catalepsy) [4]: rescue the toxin induced deficit in a manner similar to or better than control compound caffeine or no treatment | longevity (overall survival) ([5]; R6/2 mouse study): can increase the longevity | survival versus vehicle and sertraline treated animals ([5]; female R6/2 mice): survived longer | survival versus vehicle and sertraline treated animals ([5]; male and female R6/2 mice): survived longer

CN1CCN(C(=O)CNC2CC2c2ccc(OCc3ccccc3)cc2)CC1 (stereo not shown) [Compound Selective-1]
IC50 [6]: > 1000 nM | rhabdomere degeneration as compared to vehicle treated flies ([7]; day 2): reduced rhadomere degeneration | rescue of eye degeneration phenotype as compared to vehicle treated fly ([7]; day not stated): in a concentration dependent manner rescues the eye degeneration phenotype

CN1CCN(C(=O)CNC2CC2c2ccc(C3CC3)cc2)CC1 (stereo not shown) [Selective-2]
IC50 ([6]; read-out: MAO-A IC50): > 1000 nM
